In US11484032B2, “Compositions for inhibition of insect sensing” (Vanderbilt University, priority 2011, dated 2022):
pEC50: −log10 of the molar value.

Legend:
[1] = biological target: T1, mosquito odorant receptor (complex not stated) (Anopheles gambiae, UniProt Q7QCC7); experiment: Agonism of mosquito odorant receptors by VUAA derivatives (complex not stated), cell-based Ca2+ imaging; conditions: FIGS. 23, 24, 26, 28; OR complex not stated
T1 sequence (Q7QCC7 1-478): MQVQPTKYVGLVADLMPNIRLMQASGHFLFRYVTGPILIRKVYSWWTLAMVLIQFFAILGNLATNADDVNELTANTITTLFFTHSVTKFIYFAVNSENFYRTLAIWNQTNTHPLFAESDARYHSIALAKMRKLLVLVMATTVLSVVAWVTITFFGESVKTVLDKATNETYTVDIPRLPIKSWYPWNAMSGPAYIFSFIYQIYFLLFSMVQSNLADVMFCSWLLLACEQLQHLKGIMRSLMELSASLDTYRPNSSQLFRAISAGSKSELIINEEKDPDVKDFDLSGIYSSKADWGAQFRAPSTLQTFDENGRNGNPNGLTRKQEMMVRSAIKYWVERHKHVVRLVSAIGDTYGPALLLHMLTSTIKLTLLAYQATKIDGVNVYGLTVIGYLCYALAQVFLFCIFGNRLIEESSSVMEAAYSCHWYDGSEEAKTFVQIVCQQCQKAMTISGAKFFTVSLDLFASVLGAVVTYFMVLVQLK
Excerpt: For transient transfections, ORs were cloned into pCl (Promega) and transfected into Flp-In™ T-REx™293 cell lines (Invitrogen) with Fu GENE6 (Roche). For the creation of stable cell lines, a cell culture expression vector capable of expressing Orco in conjunction with a conventional OR, pcDNA5/FRT/TO (Invitrogen) was modified to create two individual expression cassettes each under the control of a separate CMV/Tet02 promoter and a BGH poly-adenylation signal. Cells (as above) were transfected with the modified pcDNA5 plasmid along with POG44 (a Flp recombinase expression plasmid) to facilitate site-specific recombination. Stable cell lines were selected using Hygromycin B (Invitrogen). Cells were maintained in DMEM (Invitrogen) supplemented with 10% Tetracycline-free FBS (HyClone) and 15 ng/ml Blasticidin. For fluorometric Ca2+ measurements, stable lines expressing ORs of interest were seeded at 20,000 cells/well in black wall, poly-lysine coated 384-well cell culture plates (Greiner) and treated with […] tetracycline (Sigma) overnight to induce OR expression. Cells were dye-loaded with 1.8 uM Fluo-4 AM (Molecular Probes), 2.5 mM Probenecid (Molecular Probes) in assay buffer (20 mM HEPES, IX HBSS) for 45 minutes at 37° C. in 5% CO2 prior to each assay. Ca^2+ mobilization was assayed in an FDSS6000 (Hamamatsu). Baseline readings were taken for 20 s before automated addition of compound previously diluted in DMSO and assay buffer. Ratios were described as Maximum/Minimum response and each response was normalized to the maximum responder.

[2] = biological target: T2, rat transient receptor potential vanilloid 1 (rTRPV1) (Rattus norvegicus, UniProt O35433); experiment: Whole-cell patch clamp, HEK cells stably expressing rTRPV1; assay type: cell-based
T2 construct: expressed in transfected cells
T2 sequence (O35433 whole entry): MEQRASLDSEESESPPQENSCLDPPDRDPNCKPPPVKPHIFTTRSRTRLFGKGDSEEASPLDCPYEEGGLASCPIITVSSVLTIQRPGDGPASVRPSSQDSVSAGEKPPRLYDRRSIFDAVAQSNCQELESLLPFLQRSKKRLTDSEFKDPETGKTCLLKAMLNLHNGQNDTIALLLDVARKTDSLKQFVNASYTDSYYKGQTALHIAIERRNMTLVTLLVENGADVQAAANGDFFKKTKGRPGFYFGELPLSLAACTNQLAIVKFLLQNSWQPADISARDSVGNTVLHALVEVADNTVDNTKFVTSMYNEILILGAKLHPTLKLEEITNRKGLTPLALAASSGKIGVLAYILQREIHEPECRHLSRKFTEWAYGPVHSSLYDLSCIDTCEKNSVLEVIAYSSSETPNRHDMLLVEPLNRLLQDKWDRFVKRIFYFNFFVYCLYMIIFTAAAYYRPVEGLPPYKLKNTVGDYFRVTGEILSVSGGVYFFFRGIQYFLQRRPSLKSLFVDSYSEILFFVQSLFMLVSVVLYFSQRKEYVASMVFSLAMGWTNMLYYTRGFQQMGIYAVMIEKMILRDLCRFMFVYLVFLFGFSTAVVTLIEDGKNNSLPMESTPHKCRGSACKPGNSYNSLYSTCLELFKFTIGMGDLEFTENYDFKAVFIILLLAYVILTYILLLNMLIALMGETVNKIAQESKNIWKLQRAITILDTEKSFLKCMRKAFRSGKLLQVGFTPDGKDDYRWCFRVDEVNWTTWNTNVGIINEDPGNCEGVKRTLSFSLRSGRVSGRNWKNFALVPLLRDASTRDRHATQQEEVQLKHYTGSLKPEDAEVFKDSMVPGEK

Orco 28 + Orco = biological target: T3, Orco 28 + Orco (Anopheles gambiae, UniProt Q7QCC7); experiment: Activity against insect odorant sensory receptors, Orco 28 + Orco (Table 1); assay type: cell-based; conditions: for Orco 28 + Orco Potentiator % increase: potentiator mode; for Orco 28 + Orco Antagonist % Reduction: antagonist mode
T3 construct: expressed in transfected cells
T3 sequence (Q7QCC7 1-478): T1 sequence (Q7QCC7 1-478)
Experimental: The activity against insect odorant sensory receptors was evaluated for various disclosed compounds, and the data were collected in Table 1.

AgORco = biological target: T4, AgORco (Anopheles gambiae, UniProt Q7QCC7); experiment: Whole-cell patch clamp, HEK293 cells stably expressing AgORco alone; assay type: cell-based; conditions: for whole-cell current response: AgORco alone cells, holding potential −60 mV
T4 construct: expressed in transfected cells
T4 sequence (Q7QCC7 1-478): T1 sequence (Q7QCC7 1-478)
Experimental: (§1) Currents from OR-expressing HEK293 cells were amplified with an Axopatch 200b Amplifier (Axon Instruments) and digitized through a Digidata 1322A (Axon Instruments). Electrophysiological data was recorded and analyzed using pCLAMP 10 (Axon Instruments). Electrodes were fabricated from quartz tubing (Sutter Instruments) and pulled to 4-6 MiΩ for whole cell recording. Electrodes were filled with internal solution (120 mM KCl, 30 mM D-glucose, 10 mM HEPES, 2 mM MgCl2, 1.1 mM EGTA, and 0.1 CaCl2) (pH 7.35, 280 mOsm). External (bath) solution contained 130 mM NaCl, 34 mM D-glucose, 10 mM HEPES, 1.5 mM CaCl2), 1.3 mM KH2PO4, and 0.5 MgSO4 (pH 7.35, 300 mOsm). Compounds were diluted in external solution and locally perfused to the recording cell using Perfusion Pencil (Automate Scientific) and controlled by a ValveLink 8.2 controller (Automate Scientific). Whole cell recordings were sampled at 10 kHz and filtered at 5 kHz. Outside-out patches were obtained using 10-15MΩ electrodes pulled from standard glass capillaries (World Precision Instruments) and fire-polished with an MF-830 micro forge (Narishige). Single channel recordings were sampled at 20 kHz. Recordings were reduced to 1 kHz and low-pass filtered at 500 Hz for display and analysis using QuB (SUNY at Buffalo).
(§2) To test the hypothesis that VUAA1 directly agonized AgORco, whole-cell patch clamp responses were examined in AgORco+AgOR10 expressing cells as well as HEK293 cells stably expressing AgORco alone. […] The VUAA1-dependent currents in AgORco+AgOR10 cells resembled those resulting from application of benzaldehyde, an orthosteric agonist of AgOR10 (FIG. 3C) (Wang, 2010; Carey, 2010). […] To investigate the specificity of VUAA1 agonism, the inventors transiently transfected HEK cells with the AgORco orthologs of Drosophila melanogaster and Heliothis virescens, DmORco and HvOR2 respectively.

AgORco+AgOR10 [3] = biological target: T5, AgORco+AgOR10 (Anopheles gambiae, UniProt Q7QCC7); experiment: Whole-cell patch clamp, HEK293 cells expressing AgORco+AgOR10; assay type: cell-based; conditions: for whole-cell current response: holding potential −60 mV
T5 construct: expressed in transfected cells
T5 sequence (Q7QCC7 1-478): T1 sequence (Q7QCC7 1-478)
Experimental: as §1, §2

AgORco+AgOR10 [4] = biological target: T5, AgORco+AgOR10; experiment: Fluo-4 Ca2+ imaging, HEK293 cells expressing Orco+AgOR10; assay type: cell-based; parameters: Orco 10 + Orco Angatonist % Reduction / Orco 10 + Orco Agonist % of control: concentration or dose not given beside the values; conditions: Orco 10 + Orco; for Orco 10 + Orco Angatonist % Reduction: antagonist mode
Outline: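 Stable Flp-In T-REx 293 lines co-expressing Orco and OR, induced overnight with 0.3 u-g/ul tetracycline, loaded with 1.8 uM Fluo-4 AM plus 2.5 mM probenecid for 45 min at 37 °C. Ca2+ mobilization read after 20 s baseline and compound addition; Max/Min ratios normalized to the maximum responder.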

[5] = tested on: Un-transfected HEK293 cells; experiment: Whole-cell patch clamp, un-transfected HEK293 control cells; assay type: cell-based, human
Experimental: as §1

## CCn1c(SCC(=O)Nc2ccc(C(C)C)cc2)nnc1-c1cn[nH]c1 [D00049 row 12]
[1]
  pEC50: 3.70

## COc1cc(CNC(=O)CCCC/C=C/C(C)C)ccc1O [Capsaicin, capsaicin, reference compound]
[2]
  whole-cell current response: robust response

## CCn1c(Cc2ccccc2)nnc1SCC(=O)Nc1ccc(OC)cc1
Orco 28 + Orco
  Orco 28 + Orco Potentiator % increase: 12.7%

## CCn1c(SCC(=O)Nc2ccc(Cl)cc2C)nnc1-c1ccncc1
Orco 28 + Orco
  Orco 28 + Orco Potentiator % increase: 17.69%

## CCn1c(SCC(=O)Nc2ccc(C(C)C)cc2)nnc1-c1cccnc1 [D00049 row 2]
[1]
  pEC50: 4.70

## Nc1ncnc2c1nc(Br)n2[C@@H]1O[C@@H]2COP(=O)(O)O[C@H]2[C@H]1O [8-Br cAMP, 8-Br-cAMP]
AgORco
  whole-cell current response: unable to evoke whole-cell currents
AgORco+AgOR10 [3]; AgORco+AgOR10 cells
  whole-cell current response: unable to evoke whole-cell currents

## N.N.N.N.N.N.N.N.N.N.N.N.N.N.[Cl-].[Cl-].[Cl-].[Cl-].[Cl-].[Cl-].[O-2].[O-2].[Ru+3].[Ru+3].[Ru+4] [RR, Ruthenium Red]
AgORco; AgORco cells, agonist VUAA1
  reduction of VUAA1 responses: 79.4±4.0%
AgORco+AgOR10 [3]; AgORco+AgOR10 cells, agonist VUAA1
  reduction of VUAA1-elicited currents: 68.3±2.8%
AgORco+AgOR10 [3]; AgORco+AgOR10 cells, agonist benzaldehyde
  reduction of benzaldehyde-elicited currents: 87.8±1.8%

## CCn1c(SCC(=O)Nc2ccc(S(=O)(=O)Nc3ccccn3)cc2)nnc1-c1ccncc1
AgORco+AgOR10 [4]; potentiator mode
  Orco 10 + Orco Potentiator % increase: 12.31%
Orco 28 + Orco
  Orco 28 + Orco Potentiator % increase: 15.45%

## CCn1c(SCC(=O)Nc2ccc(C(C)C)cc2)nnc1-c1cnn(C)c1 [D00049 row 11]
[1]
  pEC50: 3.74

## CCn1c(COc2ccccc2)nnc1SCC(=O)Nc1cc(C)ccc1OC
AgORco+AgOR10 [4]
  Orco 10 + Orco Angatonist % Reduction: 33.67%
Orco 28 + Orco
  Orco 28 + Orco Antagonist % Reduction: 17.21%

## O=Cc1ccccc1 [Benzaldehyde]
AgORco
  whole-cell current response: only Orco+AgOR10 cells responded to BA
AgORco+AgOR10 [3]; AgORco+AgOR10 cells
  whole-cell current response: concentration-dependent responses
AgORco+AgOR10 [3]; AgORco+AgOR10 complexes, mean s.e.m.
  reversal potential of agonist-induced current: −2.9±1.4 mV
[5]
  whole-cell current response: did not respond

## Nc1nc2c(nc(Br)n2[C@@H]2O[C@@H]3COP(=O)(O)O[C@H]3[C@H]2O)c(=O)[nH]1 [8-Br cGMP, 8-Br-cGMP]
AgORco
  whole-cell current response: unable to evoke whole-cell currents
AgORco+AgOR10 [3]; AgORco+AgOR10 cells
  whole-cell current response: unable to evoke whole-cell currents

## CCn1c(SCC(=O)N2c3ccccc3Sc3ccccc32)nnc1-c1ccco1
AgORco+AgOR10 [4]
  Orco 10 + Orco Angatonist % Reduction: 48.26%
Orco 28 + Orco
  Orco 28 + Orco Antagonist % Reduction: 28.73%

## CCn1c(Cc2c(C)[nH]c3ccccc23)nnc1SCC(=O)Nc1ccc(Br)cc1
AgORco+AgOR10 [4]
  Orco 10 + Orco Angatonist % Reduction: 13.11%
Orco 28 + Orco
  Orco 28 + Orco Antagonist % Reduction: 37.93%

## CCn1c(CNC(=O)c2ccco2)nnc1SCC(=O)Nc1cc(C)c(C)cc1Br
Orco 28 + Orco
  Orco 28 + Orco Potentiator % increase: 12.28%
